Reference: US4032654A, “Water-soluble, liquid concentrates of S-methyl-[(methyl-carbamoyl)oxy]-thioacetimidate and methyl N', N'-dimethyl-N-[(methyl-carbamoyl)oxy]-1-thiooxamimidate” (priority 1975, dated 1977)
In brackets after ≈: the same amount, converted by molar mass. Read-outs that look alike come from different tables or passages of the source.

Experiments:
[1] = 30% cyclohexanone, 30% cyclohexanol, 30% water, 10% methanol, -6° C.; for Solubility, both actives in solvent: Methomyl: with oxamyl
Procedure: Methomyl and Oxamyl Solubility In Cyclohexanone, Cyclohexanol, CH3 OH and H2 O at -6° C.
Methomyl and oxamyl were dissolved separately and in weight ratios of 1:1, 2:1 and 1:2.5 methomyl to oxamyl in a solvent system consisting of 30 wt. % cyclohexanone, 30 wt. % cyclohexanol, 30 wt. % water and 10 wt. % methanol. These solutions were equilibrated at -6° C. and seeded with methomyl and/or oxamyl crystals. The samples of liquid and solids remained at -6° C. until solid-liquid equilibrium was assured. A liquid sample was removed from each at -6° C. and assayed for methomyl and/or oxamyl. Solids were also isolated at -6° C., washed, dried and dissolved in CH3 OH to yield a 10% solution which was analyzed by TLC to ensure both methomyl and oxamyl crystals were present in the solids of the combination sample. All such solids contained both oxamyl and methomyl.
SOLUBILITY OF METHOMYL AND OXAMYL (2:1, 1:1 and 1:2.5 Wt.
RATIOS) IN CYCLOHEXANONE, CYCLOHEXANOL, CH3 OH AND H2 O

[2] = 80:20 wt acetone/H2O, -6° C.; for Solubility, both actives in solvent: Methomyl: with oxamyl
Procedure: Solubility of Methomyl and Oxamyl 80:20 Wt. Ratio Acetone:H2 O
Methomyl and oxamyl were dissolved in a solvent system consisting of 80 wt. % acetone and 20 wt. % water separately and in 1:1, 2:1 and 1:2.5 wt. ratios of methomyl and oxamyl. These solutions were equilibrated at -6° C. and were seeded with methomyl and/or oxamyl. They remained at -6° C. until solid-liquid equilibrium was assured. Liquid was removed from each sample at -6° C. and assayed for methomyl and oxamyl. Solids were also removed at -6° C., washed, dried and dissolved in methanol to yield a 10 wt. % solution which was evaluated by TLC for oxamyl and methomyl.

[3] = 60% cyclohexanone, 10% methanol, 30% water, -6° C.; for Solubility, both actives in solvent: Methomyl: with oxamyl
Procedure: Methomyl and/or oxamyl were added to a solvent system consisting of 60% cyclohexanone, 10% methanol and 30% water at room temperature at a concentration higher than the solubility limit at -6° C. The methomyl and oxamyl were added together, at weight ratios of 2:1, 1:1 and 1:2.5. The solutions were cooled to -6° C. and seeded with methomyl and/or oxamyl to initiate crystallization. The solutions remained at -6° C. until equilibrium was assured. The supernatant liquid in each sample was analyzed for methomyl and oxamyl by liquid chromatography.

physchem [4] = experiment: physchem
Procedure: Methomyl and oxamyl were added to various methanol:water solvent systems ranging from 100% CH3 OH to 40% CH3 OH:60% H2 O. The methomyl and oxamyl were dissolved separately or combined on a 1:1 weight ratio in the solvent systems at room temperature at a concentration exceeding the solubility limit at -6° C. Each sample was seeded with methomyl and/or oxamyl at -6° C. and allowed to crystallize until equilibrium was established. The supernatant liquid of each sample was assayed for methomyl and/or oxamyl by liquid chromatography.

physchem [5] = details: -6° C.
Procedure: Methomyl and oxamyl were added to various methanol:water solvent systems ranging from 100 wt. % CH3 OH to 30 wt. % CH3 OH:70 wt. % H2 O. […] The samples were equilibrated at -6° C. in a constant temperature freezer after which they were seeded with methomyl and oxamyl crystals to ensure crystallization of both materials. After crystal-liquid equilibrium was assured, liquid was removed at -6° C. and assayed for methomyl and oxamyl. Solids were also removed at -6° C., washed with hexane and dried. The solids were then dissolved in methanol to yield a 10 wt. % solution. This solution was evaluated by thin layer chromatography (TLC) to ensure the solids consisted of both methomyl and oxamyl.
Solubility of Methomyl and Oxamyl 1:2.5 wt. ratio in CH3 OH:H2 O at -6° C.
Example 3 was repeated by dissolving methomyl and oxamyl in a 1:2.5 weight ratio in the same solvent systems under the same conditions.

Compound: CNC(=O)ON=C(C)SC [Methomyl]
- Solubility, Methomyl alone in solvent ([1]; alone): 24.5 gms/100 gms solvent
- Solubility, both actives in solvent: Methomyl ([1]; ratio 1:1): 39.6 gms/100 gms solvent
- Solubility, both actives in solvent: Methomyl ([1]; ratio 1:2.5): 40.2 gms/100 gms solvent
- Solubility, both actives in solvent: Methomyl ([1]; ratio 2:1): 42.7 gms/100 gms solvent
- Solubility, Methomyl alone in solvent ([2]; alone): 41.4 gms/100 gms solvent
- Solubility, both actives in solvent: Methomyl ([2]; ratio 1:1): 67.0 gms/100 gms solvent
- Solubility, both actives in solvent: Methomyl ([2]; ratio 1:2.5): 66.6 gms/100 gms solvent
- Solubility, both actives in solvent: Methomyl ([2]; ratio 2:1): 64.8 gms/100 gms solvent
- Solubility, Methomyl alone in solvent ([3]; alone): 29.5 gms/100 gms solvent
- Solubility, both actives in solvent: Methomyl ([3]; ratio 1:1): 46.2 gms/100 gms solvent
- Solubility, both actives in solvent: Methomyl ([3]; ratio 1:2.5): 66.6 gms/100 gms solvent
- Solubility, both actives in solvent: Methomyl ([3]; ratio 2:1): 64.8 gms/100 gms solvent
- solubility (physchem [4]; 40/60 ch3oh/h2o, Methomyl alone in solvent, alone, -6° C.): 62 mg/mL (≈ 382 mM)
- solubility (physchem [4]; 40/60 ch3oh/h2o, both actives in solvent: Methomyl, with oxamyl 1:1 wt., 40/60 CH3OH/H2O, -6° C.): 188 mg/mL (≈ 1160 mM)
- solubility (physchem [4]; 50/50 ch3oh/h2o, Methomyl alone in solvent, alone, -6° C.): 105 mg/mL (≈ 647 mM)
- solubility (physchem [4]; 50/50 ch3oh/h2o, both actives in solvent: Methomyl, with oxamyl 1:1 wt., 50/50 CH3OH/H2O, -6° C.): 237 mg/mL (≈ 1460 mM)
- solubility (physchem [4]; 60/40 ch3oh/h2o, Methomyl alone in solvent, alone, -6° C.): 155 mg/mL (≈ 956 mM)
- solubility (physchem [4]; 60/40 ch3oh/h2o, both actives in solvent: Methomyl, with oxamyl 1:1 wt., 60/40 CH3OH/H2O, -6° C.): 355 mg/mL (≈ 2190 mM)
- solubility (physchem [4]; 70/30 ch3oh/h2o, Methomyl alone in solvent, alone, -6° C.): 208 mg/mL (≈ 1280 mM)
- solubility (physchem [4]; 70/30 ch3oh/h2o, both actives in solvent: Methomyl, with oxamyl 1:1 wt., 70/30 CH3OH/H2O, -6° C.): 438 mg/mL (≈ 2700 mM)
- solubility (physchem [4]; 80/20 ch3oh/h2o, Methomyl alone in solvent, alone, -6° C.): 263 mg/mL (≈ 1620 mM)
- solubility (physchem [4]; 80/20 ch3oh/h2o, both actives in solvent: Methomyl, with oxamyl 1:1 wt., 80/20 CH3OH/H2O, -6° C.): 581 mg/mL (≈ 3580 mM)
- solubility (physchem [4]; 90/10 ch3oh/h2o, Methomyl alone in solvent, alone, -6° C.): 299 mg/mL (≈ 1840 mM)
- solubility (physchem [4]; 90/10 ch3oh/h2o, both actives in solvent: Methomyl, with oxamyl 1:1 wt., 90/10 CH3OH/H2O, -6° C.): 664 mg/mL (≈ 4090 mM)
- Solubility, Methomyl alone in solvent (physchem [4]; alone, 100/0 CH3OH/H2O, -6° C.): 30.7 gms/100 gms
- Solubility when dissolved together in the solvents taught (physchem [4]; summary of Examples 2-7): increases in solubility occur
- Solubility, both actives in solvent: Methomyl (physchem [4]; with oxamyl 1:1 wt., 100/0 CH3OH/H2O, -6° C.): 63.9 gms/100 gms
- solubility (physchem [5]; 30/70 ch3oh/h2o, both actives in solvent: Methomyl, with oxamyl, 1:2.5 wt., 30/70 CH3OH/H2O): 156 mg/mL (≈ 962 mM)
- solubility (physchem [5]; 40/60 ch3oh/h2o, Methomyl alone in solvent, alone): 62 mg/mL (≈ 382 mM)
- solubility (physchem [5]; 40/60 ch3oh/h2o, both actives in solvent: Methomyl, with oxamyl, 1:2.5 wt., 40/60 CH3OH/H2O): 288 mg/mL (≈ 1780 mM)
- solubility (physchem [5]; 50/50 ch3oh/h2o, Methomyl alone in solvent, alone): 105 mg/mL (≈ 647 mM)
- solubility (physchem [5]; 50/50 ch3oh/h2o, both actives in solvent: Methomyl, with oxamyl, 1:2.5 wt., 50/50 CH3OH/H2O): 411 mg/mL (≈ 2530 mM)
- solubility (physchem [5]; 60/40 ch3oh/h2o, Methomyl alone in solvent, alone): 155 mg/mL (≈ 956 mM)
- solubility (physchem [5]; 60/40 ch3oh/h2o, both actives in solvent: Methomyl, with oxamyl, 1:2.5 wt., 60/40 CH3OH/H2O): 440 mg/mL (≈ 2710 mM)
- solubility (physchem [5]; 70/30 ch3oh/h2o, Methomyl alone in solvent, alone): 206 mg/mL (≈ 1270 mM)
- solubility (physchem [5]; 70/30 ch3oh/h2o, both actives in solvent: Methomyl, with oxamyl, 1:2.5 wt., 70/30 CH3OH/H2O): 220 mg/mL (≈ 1360 mM)
- solubility (physchem [5]; 80/20 ch3oh/h2o, Methomyl alone in solvent, alone): 263 mg/mL (≈ 1620 mM)
- solubility (physchem [5]; 80/20 ch3oh/h2o, both actives in solvent: Methomyl, with oxamyl, 1:2.5 wt., 80/20 CH3OH/H2O): 573 mg/mL (≈ 3530 mM)
- solubility (physchem [5]; 90/10 ch3oh/h2o, Methomyl alone in solvent, alone): 299 mg/mL (≈ 1840 mM)
- solubility (physchem [5]; 90/10 ch3oh/h2o, both actives in solvent: Methomyl, with oxamyl, 1:2.5 wt., 90/10 CH3OH/H2O): 699 mg/mL (≈ 4310 mM)
- Solubility, Methomyl alone in solvent (physchem [5]; alone, 100/0 CH3OH/H2O): 30.7 gms/100 gms
- Solubility, both actives in solvent: Methomyl (physchem [5]; with oxamyl, 1:2.5 wt., 100/0 CH3OH/H2O): 71.1 gms/100 gms
